Reference: ChEMBL document CHEMBL3621110, “Discovery and Development of the Aryl O-Sulfamate Pharmacophore for Oncology and Women's Health” (J Med Chem, 2015)
Values belong to the compound of their own block, whether it stands above or below them.

Experiments:
[1] = species: Rattus norvegicus; test: animal or person; format: functional; conditions: Liver, po, 168 h
[2] = target: T1, Steryl-sulfatase (Homo sapiens, UniProt P08842); format: microsomes, Placenta, Microsome
T1 sequence (P08842 whole entry): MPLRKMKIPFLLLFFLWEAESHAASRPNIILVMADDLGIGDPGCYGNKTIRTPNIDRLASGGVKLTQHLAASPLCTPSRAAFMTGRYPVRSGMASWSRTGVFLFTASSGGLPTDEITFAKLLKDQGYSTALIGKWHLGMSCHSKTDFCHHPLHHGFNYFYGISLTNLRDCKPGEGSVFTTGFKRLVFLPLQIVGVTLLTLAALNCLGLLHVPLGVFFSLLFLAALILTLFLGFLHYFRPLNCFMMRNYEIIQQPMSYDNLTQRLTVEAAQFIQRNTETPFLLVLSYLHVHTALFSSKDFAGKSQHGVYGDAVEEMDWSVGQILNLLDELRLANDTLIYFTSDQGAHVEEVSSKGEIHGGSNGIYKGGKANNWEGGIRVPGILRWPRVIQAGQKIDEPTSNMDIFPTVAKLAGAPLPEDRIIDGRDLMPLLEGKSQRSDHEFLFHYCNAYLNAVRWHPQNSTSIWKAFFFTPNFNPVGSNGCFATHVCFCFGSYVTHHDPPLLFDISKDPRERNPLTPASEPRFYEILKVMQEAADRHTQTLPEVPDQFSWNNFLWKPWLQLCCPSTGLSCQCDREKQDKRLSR

[3] = species: Rattus norvegicus; test: animal or person; format: functional; conditions: Liver, po, 120 h
[4] = system: MCF7; test: cells; format: functional; conditions: Homo sapiens
[5] = system: LNCaP; test: cells; format: functional, cell-based; conditions: Homo sapiens
[6] = cells; format: functional, cell-based; conditions: Homo sapiens, PC-3
[7] = system: A2780cisR; test: cells; format: functional, cell-based; conditions: Homo sapiens
[8] = cells; format: functional, cell-based; conditions: Homo sapiens, A2780 ADR
[9] = system: MDA-MB-231; test: cells; format: functional; conditions: Homo sapiens
[10] = system: MCF7; test: animal or person; format: functional, Homo sapiens; conditions: Mus musculus, MCF7, po
[11] = system: MCF7; test: animal or person; format: functional, Homo sapiens; conditions: Mus musculus, MCF7, po; remark: listed apart in the source
[12] = system: 4T1; test: animal or person; format: functional; conditions: Mus musculus
[13] = system: 4T1; test: animal or person; format: functional; conditions: Mus musculus; remark: listed apart in the source
[14] = system: MDA-MB-231; test: animal or person; format: functional, Homo sapiens; conditions: Mus musculus
[15] = system: MDA-MB-231; test: animal or person; format: functional, Homo sapiens; conditions: Mus musculus; remark: listed apart in the source
[16] = in vivo; conditions: mouse, po, 10 mg/kg
[17] = in vivo; conditions: MF1, mouse
[18] = in vivo; conditions: MF1, mouse; remark: listed apart in the source
[19] = in vivo; conditions: MF1, mouse; remark: listed apart in the source
[20] = in vivo; conditions: MF1, mouse; remark: listed apart in the source
[21] = target: T1, Steryl-sulfatase; set-up: species or system Placenta, Microsome
[22] = target: T2, Cytochrome P450 1A2 (Homo sapiens, UniProt P05177)
T2 sequence (P05177 whole entry): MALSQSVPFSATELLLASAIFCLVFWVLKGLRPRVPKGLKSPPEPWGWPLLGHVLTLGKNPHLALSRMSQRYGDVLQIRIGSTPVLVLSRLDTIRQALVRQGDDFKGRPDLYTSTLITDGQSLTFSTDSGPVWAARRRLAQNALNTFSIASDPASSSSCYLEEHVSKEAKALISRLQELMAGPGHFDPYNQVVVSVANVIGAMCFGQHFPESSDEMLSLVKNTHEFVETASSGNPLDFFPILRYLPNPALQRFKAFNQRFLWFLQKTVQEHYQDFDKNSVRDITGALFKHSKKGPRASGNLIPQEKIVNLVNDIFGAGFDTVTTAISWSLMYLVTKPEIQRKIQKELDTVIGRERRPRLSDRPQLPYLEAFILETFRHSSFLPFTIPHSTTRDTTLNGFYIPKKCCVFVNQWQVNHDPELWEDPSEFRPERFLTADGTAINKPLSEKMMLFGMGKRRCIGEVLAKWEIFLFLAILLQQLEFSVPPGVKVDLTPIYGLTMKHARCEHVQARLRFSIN

SMILES: Cc1cc(=O)oc2cc(OS(N)(=O)=O)ccc12
- inhibition in vivo at 10 mg/kg/day [1]: 85%

SMILES: C[C@]12CC[C@@H]3c4ccc(OS(N)(=O)=O)cc4CC[C@H]3[C@@H]1CC(=O)N(Cc1cccnc1)C2=O
- IC50 [2]: 1 nM
- inhibition in vivo at 10 mg/kg/day [3]: 99%

SMILES: CCc1cc2c(cc1OS(N)(=O)=O)CC[C@@H]1[C@@H]2CC[C@]2(C)C(=O)CC[C@@H]12
- GI50 [4]: 340 nM
- IC50 [5]: 100 nM
- IC50 [6]: 100 nM
- IC50 [7]: 100 nM
- IC50 [8]: 100 nM

SMILES: COc1cc2c(cc1OS(N)(=O)=O)CC[C@@H]1[C@@H]2CC[C@]2(C)[C@@H](OS(N)(=O)=O)CC[C@@H]12
- inhibition in vivo at 20 mg/kg [10]: 52%
- inhibition in vivo at 5 mg/kg [11]: 46%
- inhibition in vivo at 20 mg/kg/day [12]: 80.4%
- inhibition in vivo at 20 mg/kg/day [13]: 35%
- ED50 [14]: 10 mg/kg
- ED50 [15]: 20 mg/kg
- bioavailability at 24 h [16]: 85%
- LD50 [17]: 30 mg/kg
- selectivity ratio [18]: 3
- LD50 [19]: 80 mg/kg
- selectivity ratio [20]: 4

SMILES: C[C@]12CC[C@@H]3c4ccc(OS(N)(=O)=O)cc4CC[C@H]3[C@@H]1CC(=O)NC2=O
- IC50 [2]: 20 nM

SMILES: CN1C(=O)C[C@H]2[C@@H]3CCc4cc(OS(N)(=O)=O)ccc4[C@H]3CC[C@]2(C)C1=O
- IC50 [2]: 12 nM

SMILES: CCN1C(=O)C[C@H]2[C@@H]3CCc4cc(OS(N)(=O)=O)ccc4[C@H]3CC[C@]2(C)C1=O
- IC50 [2]: 52 nM

SMILES: CCCCN1C(=O)C[C@H]2[C@@H]3CCc4cc(OS(N)(=O)=O)ccc4[C@H]3CC[C@]2(C)C1=O
- IC50 [2]: 382 nM

SMILES: CCCCCCN1C(=O)C[C@H]2[C@@H]3CCc4cc(OS(N)(=O)=O)ccc4[C@H]3CC[C@]2(C)C1=O
- IC50 [2]: 288 nM

SMILES: CC(C)(C)c1ccc(CN2C(=O)C[C@H]3[C@@H]4CCc5cc(OS(N)(=O)=O)ccc5[C@H]4CC[C@]3(C)C2=O)cc1
- IC50 [2]: 23 nM

Other lines, results leading:

- GI50 [4]: 42 nM
SMILES: C[C@]12CC[C@@H]3c4ccc(OS(N)(=O)=O)c(Br)c4CC[C@H]3[C@@H]1CCC2=O

- GI50 [9]: 234 nM
SMILES: COc1cccc(CN2Cc3cc(OC)c(OS(N)(=O)=O)cc3CC2C)c1 (stereo unspecified)

- IC50 [21]: 200 nM
SMILES: NS(=O)(=O)Oc1ccc2c3c(c(=O)oc2c1)CCC3

- IC50 [21]: 70 nM
SMILES: NS(=O)(=O)Oc1ccc2c3c(c(=O)oc2c1)CCCC3

- IC50 [21]: 30 nM
SMILES: NS(=O)(=O)Oc1ccc2c3c(c(=O)oc2c1)CCCCCC3

- IC50 [21]: 2.4 nM
SMILES: NS(=O)(=O)Oc1ccc2c3c(c(=O)oc2c1)CCCCCCC3

- IC50 [21]: 1 nM
SMILES: NS(=O)(=O)Oc1ccc2c3c(c(=O)oc2c1)CCCCCCCC3

- IC50 [21]: 60 nM
SMILES: NS(=O)(=O)Oc1ccc2c3c(c(=O)oc2c1)CCCCCCCCCC3

- IC50 [21]: 75 nM
SMILES: NS(=O)(=O)Oc1ccc2c3c(c(=O)oc2c1)CCCCCCCCCCC3

- IC50 [21]: 370 nM
SMILES: NS(=O)(=O)Oc1ccc2c3c(c(=O)oc2c1)CCCCCCCCCCCCC3

- Ki [22]: 770 nM
SMILES: O=c1oc2cc(O)ccc2c2c1CCCCC2
